Test results as given in US20230096766A1, “AMINO ACID HAVING FUNCTIONAL GROUP CAPABLE OF INTERMOLECULAR HYDROGEN BONDING, PEPTIDE COMPOUND CONTAINING SAME AND METHOD FOR PRODUCTION THEREOF” (Chugai Seiyaku Kabushiki Kaisha, priority 2018, published 2023).
*1 amine or outer side, *2 acyl side, *3 side chain or, on linkers, in order; H or OH if unused. Where a SMILES comes first, the peptide text is derived from it. Bridges are numbered along the chain shown (N, C = ends). [ ]: non-standard residue; d: D form. The star is where a group is joined. X5 = O=C([C@H](CCC[C@@H]1CC(F)(F)CN1)N[*:1])[*:2]; Pro(4,4-F2)ψ(CH2) = FC1(F)CN[C@H](C*)C1; NMeF = CN[C@@H](Cc1ccccc1)C(=O)O; NMeGABA = CN(CCCC(=O)[*:2])[*:1]; NMeL = CN[C@@H](CC(C)C)C(=O)O; NMeV = CN[C@H](C(=O)O)C(C)C; NMeAbu = CC[C@H](NC)C(=O)O; NMeA = CN[C@@H](C)C(=O)O; Piperidide = C1CCN(*)CC1; dAbu = CC[C@@H](N)C(=O)O; dNMeA = CN[C@H](C)C(=O)O; CH2CONHMe = CNC(=O)C*; Me2NCH2CH2 = CN(C)CC*; NBuGly = CCCCNCC(=O)O; NPrGly = CCCNCC(=O)O; Sar = CNCC(=O)O; tBu = CC(C)(C)*

Test: Membrane permeability test of cyclic peptides (Caco-2, modified/improved method of WO 2018/124162)
Details: human, Caco-2, Caco-2 (cm/sec), Table 36; Papp; sequences having Papp ≥ 1.0 × 10^−6 at ARC = 3

`CC[C@H](C)[C@@H]1NC(=O)[C@H](CC(C)C)N(C)C(=O)[C@H](C)N(C)C(=O)[C@H]([C@@H](C)O)NC(=O)[C@H](Cc2ccccc2)N(C)C(=O)[C@H](C)N(C)C(=O)[C@@H](C)N(C)C(=O)C[C@@H](C(=O)N(C)[C@@H](Cc2ccccc2)C(=O)N(C)[C@@H](Cc2ccccc2)C(=O)N[C@@H](C)C(=O)N2CCCCC2)NC(=O)[C@H](C(C)C)N(C)C(=O)[C@H](CC(C)C)N(C)C1=O` [pd201] ([dNMeA][NMeA][NMeF]T[NMeA][NMeL]I[NMeL][NMeV]D[NMeF][NMeF]A-Piperidide; lactam N-10) and `CC[C@H](C)[C@@H]1NC(=O)[C@H](Cc2ccccc2)N(C)C(=O)CN(C)C(=O)C[C@@H](C(=O)N2CCCCC2)NC(=O)[C@H](C(C)C)N(C)C(=O)[C@H](COC(C)(C)C)NC(=O)[C@H](CC(C)C)N(C)C(=O)[C@H](Cc2ccccc2)N(C)C(=O)CN(C)C(=O)[C@H]([C@@H](C)O)NC(=O)[C@H](Cc2ccccc2)N(C)C1=O` [pd205] ([Sar][NMeF]I[NMeF]T[Sar][NMeF][NMeL]S(tBu)[NMeV]D-Piperidide; lactam N-11) are within 1.5-fold of each other in Papp: 2.3 ×10⁻⁶ cm/s for the first, 1.8 ×10⁻⁶ cm/s for the second.

Same assay, conditions: human, Caco-2, Caco-2 (membrane permeability), Table 10, cyclic peptides containing Ser(S-4-F2-Pyrro-Me) (G) or Nva(2-R-4-F2-Pyrro) (H)

Compared with `CC[C@H]1C(=O)N[C@@H](COC(C)(C)C)C(=O)N(C)[C@@H](CC(C)C)C(=O)N[C@@H](COC[C@@H]2CC(F)(F)CN2)C(=O)N(C)[C@@H](CC(C)C)C(=O)N(C)[C@@H](CC(C)C)C(=O)N[C@H](C(=O)N2CCCCC2)CC(=O)N(C)CCCC(=O)N(C)[C@@H](CC(C)C)C(=O)N[C@@H](C(C)C)C(=O)N(C)[C@@H](Cc2ccccc2)C(=O)N1C` [Compound G09] ([NMeGABA][NMeL]V[NMeF][NMeAbu]S(tBu)[NMeL]S(Pro(4,4-F2)ψ(CH2))[NMeL][NMeL]D-Piperidide; lactam N-11), `CC(C)C[C@H]1C(=O)N[C@@H](C(C)C)C(=O)N(C)[C@@H](Cc2ccccc2)C(=O)N(C)[C@@H](C)C(=O)N[C@@H](COC(C)(C)C)C(=O)N(C)[C@@H](CC(C)C)C(=O)N[C@@H](CCC[C@@H]2CC(F)(F)CN2)C(=O)N(C)[C@@H](CC(C)C)C(=O)N(C)[C@@H](CC(C)C)C(=O)N[C@H](C(=O)N2CCCCC2)CC(=O)N(C)CCCC(=O)N1C` [Compound H09] ([NMeGABA][NMeL]V[NMeF][NMeA]S(tBu)[NMeL][X5][NMeL][NMeL]D-Piperidide; lactam N-11) is 2.3-fold lower in Papp: 1.2 ×10⁻⁶ cm/s for the first, 0.52 ×10⁻⁶ cm/s for the second.

Going from `CC[C@H]1C(=O)N(C)[C@@H](Cc2ccccc2)C(=O)N[C@@H](CC(C)C)C(=O)N(C)[C@@H](CC(C)C)C(=O)N(C)[C@@H](CC(C)C)C(=O)N[C@@H](COC[C@@H]2CC(F)(F)CN2)C(=O)N(C)CC(=O)N(C)[C@@H](CC(C)C)C(=O)N[C@H](C(=O)N2CCCCC2)CC(=O)N(C)[C@@H](C)C(=O)N[C@@H](CC(C)C)C(=O)N1C` [Compound G10] ([NMeA]L[NMeAbu][NMeF]L[NMeL][NMeL]S(Pro(4,4-F2)ψ(CH2))[Sar][NMeL]D-Piperidide; lactam N-11) to `CC(C)C[C@@H]1NC(=O)[C@H](C)N(C)C(=O)C[C@@H](C(=O)N2CCCCC2)NC(=O)[C@H](CC(C)C)N(C)C(=O)CN(C)C(=O)[C@H](CCC[C@@H]2CC(F)(F)CN2)NC(=O)[C@H](CC(C)C)N(C)C(=O)[C@H](CC(C)C)N(C)C(=O)[C@H](CC(C)C)NC(=O)[C@H](Cc2ccccc2)N(C)C(=O)[C@H](C)N(C)C1=O` [Compound H10] ([NMeA]L[NMeA][NMeF]L[NMeL][NMeL][X5][Sar][NMeL]D-Piperidide; lactam N-11), the Papp falls from 1.1 ×10⁻⁶ cm/s to 0.43 ×10⁻⁶ cm/s (2.6-fold).

`CCCCN1CC(=O)N(C)[C@@H](Cc2ccccc2)C(=O)N(C)[C@@H](CC(C)C)C(=O)N[C@@H](CC(C)C)C(=O)N(C)[C@@H](CC(C)C)C(=O)N[C@H](C(=O)N2CCCCC2)CC(=O)N(C)CC(=O)N(C)[C@@H](CC)C(=O)N[C@@H](C(C)C)C(=O)N(C)[C@@H](CC)C(=O)N[C@@H](COC[C@@H]2CC(F)(F)CN2)C1=O` [Compound G11] ([Sar][NMeAbu]V[NMeAbu]S(Pro(4,4-F2)ψ(CH2))[NBuGly][NMeF][NMeL]L[NMeL]D-Piperidide; lactam N-11) and `CCCCN1CC(=O)N(C)[C@@H](Cc2ccccc2)C(=O)N(C)[C@@H](CC(C)C)C(=O)N[C@@H](CC(C)C)C(=O)N(C)[C@@H](CC(C)C)C(=O)N[C@H](C(=O)N2CCCCC2)CC(=O)N(C)CC(=O)N(C)[C@@H](C)C(=O)N[C@@H](C(C)C)C(=O)N(C)[C@@H](CC)C(=O)N[C@@H](CCC[C@@H]2CC(F)(F)CN2)C1=O` [Compound H11] ([Sar][NMeA]V[NMeAbu][X5][NBuGly][NMeF][NMeL]L[NMeL]D-Piperidide; lactam N-11) are within 1.5-fold of each other in Papp: 1.5 ×10⁻⁶ cm/s for the first, 2 ×10⁻⁶ cm/s for the second.

First: CCCCN1CC(=O)N(C)[C@@H](CC(C)C)C(=O)N[C@@H](CCC[C@@H]2CC(F)(F)CN2)C(=O)N(C)[C@@H](CC(C)C)C(=O)N(C)[C@@H](CC(C)C)C(=O)N[C@H](C(=O)N2CCCCC2)CC(=O)N[C@H](CC)C(=O)N(C)[C@@H](Cc2ccccc2)C(=O)N[C@@H](CC(C)C)C(=O)N(C)[C@@H](CC)C(=O)N[C@@H]([C@@H](C)O)C1=O [Compound H01] ([dAbu][NMeF]L[NMeAbu]T[NBuGly][NMeL][X5][NMeL][NMeL]D-Piperidide; lactam N-11)
Second: CCCCN1CC(=O)N(C)[C@@H](CC(C)C)C(=O)N[C@H](C(=O)N2CCCCC2)CC(=O)N(C)[C@@H](CC)C(=O)N[C@@H](CC(C)C)C(=O)N(C)[C@@H](CC(C)C)C(=O)N(C)[C@@H](Cc2ccccc2)C(=O)N[C@@H](CCC[C@@H]2CC(F)(F)CN2)C(=O)N(C)[C@@H](C)C(=O)N(C)[C@@H](CC(C)C)C(=O)N[C@@H]([C@@H](C)O)C1=O [Compound H04] ([NMeAbu]L[NMeL][NMeF][X5][NMeA][NMeL]T[NBuGly][NMeL]D-Piperidide; lactam N-11)
The Papp of the first is 3.7-fold lower: 0.25 ×10⁻⁶ cm/s for the first, 0.93 ×10⁻⁶ cm/s for the second.

Going from `CCCCN1CC(=O)N(C)[C@@H](C)C(=O)N[C@@H](CCC[C@@H]2CC(F)(F)CN2)C(=O)N(C)[C@@H](Cc2ccccc2)C(=O)N(C)[C@@H](CC)C(=O)N[C@H](C(=O)N2CCCCC2)CC(=O)N[C@H](CC(C)C)C(=O)N(C)[C@@H](CC(C)C)C(=O)N[C@@H](C(C)C)C(=O)N(C)[C@@H](CC(C)C)C(=O)N[C@@H]([C@@H](C)O)C1=O` [Compound H02] ([dL][NMeL]V[NMeL]T[NBuGly][NMeA][X5][NMeF][NMeAbu]D-Piperidide; lactam N-11) to `CCCCN1CC(=O)N(C)[C@@H](CC(C)C)C(=O)N[C@H](C(=O)N2CCCCC2)CC(=O)N(C)[C@@H](C)C(=O)N[C@@H](CCC[C@@H]2CC(F)(F)CN2)C(=O)N(C)[C@@H](CC(C)C)C(=O)N(C)[C@@H](C)C(=O)N[C@@H](C(C)C)C(=O)N(C)[C@@H](Cc2ccccc2)C(=O)N(C)[C@@H](CC(C)C)C(=O)N[C@@H]([C@@H](C)O)C1=O` [Compound H05] ([NMeA][X5][NMeL][NMeA]V[NMeF][NMeL]T[NBuGly][NMeL]D-Piperidide; lactam N-11), the Papp rises from 0.14 ×10⁻⁶ cm/s to 1.2 ×10⁻⁶ cm/s (8.6-fold).

`CC(C)C[C@H]1C(=O)N[C@@H](C(C)C)C(=O)N(C)[C@@H](Cc2ccccc2)C(=O)N(C)[C@@H](CC(C)C)C(=O)N[C@@H](CCC[C@@H]2CC(F)(F)CN2)C(=O)N(C)[C@@H](CC(C)C)C(=O)N[C@@H]([C@@H](C)O)C(=O)N(C)[C@@H](CC(C)C)C(=O)N(C)[C@@H](CC(C)C)C(=O)N[C@H](C(=O)N2CCCCC2)CC(=O)N(C)CCCC(=O)N1C` [Compound H03] ([NMeGABA][NMeL]V[NMeF][NMeL][X5][NMeL]T[NMeL][NMeL]D-Piperidide; lactam N-11) and `CCCCN1CC(=O)N(C)[C@@H](Cc2ccccc2)C(=O)N(C)[C@@H](CC(C)C)C(=O)N[C@@H](CCC[C@@H]2CC(F)(F)CN2)C(=O)N(C)[C@@H](CC(C)C)C(=O)N[C@H](C(=O)N2CCCCC2)CC(=O)N(C)CC(=O)N(C)[C@@H](CC(C)C)C(=O)N[C@@H](C(C)C)C(=O)N(C)[C@@H](CC(C)C)C(=O)N[C@@H]([C@@H](C)O)C1=O` [Compound H07] ([Sar][NMeL]V[NMeL]T[NBuGly][NMeF][NMeL][X5][NMeL]D-Piperidide; lactam N-11) cannot be ordered by Papp: under 0.18 ×10⁻⁶ cm/s for the first, 0.16 ×10⁻⁶ cm/s for the second.

Going from `CCCCN1CC(=O)N(C)[C@@H](Cc2ccccc2)C(=O)N(C)[C@@H](CC(C)C)C(=O)N[C@@H](C(C)C)C(=O)N(C)[C@@H](CC(C)C)C(=O)N[C@H](C(=O)N2CCCCC2)CC(=O)N(C)CC(=O)N(C)[C@@H](C(C)C)C(=O)N[C@@H](CCC[C@@H]2CC(F)(F)CN2)C(=O)N(C)[C@@H](CC(C)C)C(=O)N[C@@H]([C@@H](C)O)C1=O` [Compound H06] ([Sar][NMeV][X5][NMeL]T[NBuGly][NMeF][NMeL]V[NMeL]D-Piperidide; lactam N-11) to `CCCCN1CC(=O)N(C)[C@@H](CC(C)C)C(=O)N[C@@H](COC(C)(C)C)C(=O)N(C)[C@@H](Cc2ccccc2)C(=O)N(C)[C@@H](C)C(=O)N[C@H](C(=O)N2CCCCC2)CC(=O)N[C@H](C)C(=O)N(C)[C@@H](CC)C(=O)N[C@@H](C(C)C)C(=O)N(C)[C@@H](CC(C)C)C(=O)N[C@@H](CCC[C@@H]2CC(F)(F)CN2)C1=O` [Compound H08] ([dA][NMeAbu]V[NMeL][X5][NBuGly][NMeL]S(tBu)[NMeF][NMeA]D-Piperidide; lactam N-11), the Papp rises from 0.27 ×10⁻⁶ cm/s to 0.92 ×10⁻⁶ cm/s (3.4-fold).

Same assay, conditions: human, Caco-2, Caco-2 (membrane permeability), Table 12, cyclic peptides containing Ser(NMe-Aca) (I) or Gln(Me) (J)

Work on `CCCN1CC(=O)N(C)[C@@H](CC(C)C)C(=O)N[C@@H](CC(C)C)C(=O)N(C)[C@@H](Cc2ccccc2)C(=O)N(C)[C@@H](CC(C)C)C(=O)N[C@H](C(=O)N2CCCCC2)CC(=O)N[C@H](CC(C)C)C(=O)N(C)[C@@H](Cc2ccccc2)C(=O)N[C@@H](COCC(=O)NC)C(=O)N(C)[C@@H](CC(C)C)C(=O)N[C@@H]([C@@H](C)O)C1=O` [Compound I01] ([dL][NMeF]S(CH2CONHMe)[NMeL]T[NPrGly][NMeL]L[NMeF][NMeL]D-Piperidide; lactam N-11) yielded a Papp of 0.27 ×10⁻⁶ cm/s.

Same assay, conditions: human, Caco-2, Caco-2, Papp, membrane permeability; cyclic peptides comprising Ser(Et-2-NMe2) or Gln(Ms) (Table 27)

`CC(C)C[C@@H]1NC(=O)[C@H](Cc2ccccc2)N(C)C(=O)[C@H](Cc2ccccc2)N(C)C(=O)[C@H](COCCN(C)C)NC(=O)[C@H](CC(C)C)N(C)C(=O)CCCN(C)C(=O)C[C@@H](C(=O)N2CCCCC2)NC(=O)[C@H](CC(C)C)N(C)C(=O)[C@H](CC(C)C)N(C)C(=O)[C@H]([C@@H](C)O)NC(=O)[C@H](CC(C)C)N(C)C1=O` [pd55] ([NMeGABA][NMeL]S(Me2NCH2CH2)[NMeF][NMeF]L[NMeL]T[NMeL][NMeL]D-Piperidide; lactam N-11) gave a Papp of 0.1 ×10⁻⁶ cm/s.
